Measurements reported in US6492562B1, “Racemic thioesters for production of polyketides” (Kosan Biosciences, Inc., priority 1999, dated 2002).

Tested on: bacteria
Test: Antibacterial activity
Type: cell-based

COC1(C)CC(O[C@H]2[C@H](C)[C@@H](OC3OC(C)CC(N(C)C)C3O)[C@](C)(O)C[C@@H](C)C(=O)[C@H](C)[C@@H](O)[C@](C)(O)[C@@H](CCF)OC(=O)[C@@H]2C)OC(C)C1O (some centres unmarked) [15-fluoroerythromycin A, 15-Fluoroerythromycin A]
antibacterial activity: strong antibacterial activity

CCC[C@H]1OC(=O)[C@H](C)[C@@H](O[C@H]2C[C@@](C)(OC)[C@@H](O)[C@H](C)O2)[C@H](C)[C@@H](O[C@@H]2O[C@H](C)C[C@H](N(C)C)[C@H]2O)[C@](C)(O)C[C@@H](C)C(=O)[C@H](C)[C@@H](O)[C@]1(C)O [15-methylerythromycin A]
antibacterial activity: strong antibacterial activity
